Kd data for 1 molecule are collected here from paper PMC9481570, “A small molecule antagonist of SMN disrupts the interaction between SMN and RNAP II” (Nature Communications, 2022).

The assay deals with T1, WDR5 (WD40) (Homo sapiens, UniProt P61964).
T1 construct: WDR5 (aa 24–334); His (N, cleaved yes); made in house; host or cells: E. coli BL21 (DE3) Codon plus RIL
Nature of the assay: ITC binding to WD40 repeats of WDR5. To be noted: Fig. 1c. The source says: The coding DNA fragments of following Tudor domains were cloned into pET28-MHL vector: SMN (aa 82–147), UHRF1 (aa 126–285), SMNDC1 (aa 53–130), TDRD3 (aa 554–611), SND1 (aa 650–910), TDRD2 (aa 327–420), FXR1 (aa 2–132), PHF1 (aa 28–87), SGF29 (aa 115–293), JMJD2A (aa 897–1101), 53BP1 (aa 1483–1606), SETDB1 (aa 190–410), LBR (aa 1–67), ZGPAT (aa 120–271). The coding regions of chromodomain of CBX7 (aa 8–62), PWWP domain of DNMT3A (aa 275–417), WD40 repeats of WDR5 (aa 24–334) and CW domain of ZCWPW2 (aa 21–78) were also subcloned into pET28-MHL vector to generate N-terminally His-tagged fusion protein. The MBT repeats of L3MBTL1 (aa 200–522) and L3MBTL2 (aa 170–625) were subcloned into pET28GST-LIC vector to generate N-terminally GST-His-tagged fusion protein. All the plasmids were generated by ligase independent cloning (Vazyme Biotech, C112 or ABclonal Technology, RK21020). […] The molecular weight of all protein samples was measured by mass spectrometry.
For the ITC measurement, the concentrated proteins were diluted into 20 mM Tris-HCl, pH 7.5, 150 mM NaCl (ITC buffer); the lyophilized compounds were dissolved in the same buffer, and the pH value was adjusted by adding 2 M NaOH or 2 M HCl. […] Compound concentrations were calculated from the mass and the volume of the solvent. […]

pKd: −log10 of the molar value. Where only a bound is given, the exact number is not on record here.

With `Cn1c2c(c(=N)c3c1CCC3)CCC2` [Compound 1, 4-methyl-2,3,4,5,6,7-hexahydrodicyclopenta[b,e]pyridin-8(1H)-imine], the pKd – broadly, −log10 of the Kd, conventionally taken in molar units – was less than 3.61.
